Measurements reported in patent publication EP0663826B1, “AMINO ACIDS CONTAINING PARENTERAL FORMULATIONS FOR THE TREATMENT OF HYPOTENSION AND RELATED PATHOLOGIES” (BOARD OF REGENTS THE UNIVERSITY OF TEXAS SYSTEM, priority 1991, dated 1993).

Columns and labels:
[1] = test system: ^51Cr-labeled Raji Target cells; test: IL-2 mediated lymphokine activated killer cell activity in vitro; format: cell-based, human
[2] = test system: Actinomycin D-Treated L929 Cells; test: Cytolytic activity of rh-TNF against L929 cells; format: cell-based, murine; conditions: for TNF Activity: without NMMA 594.5
Experimental: TNF bioactivity was measured by the cytotoxicity towards murine L929 cells, in vitro. […]

[3] = test system: endotoxin-induced shock in dogs; test: Endotoxin-induced hypotension in dogs (with nitroglycerin and control dogs); format: in vivo
Experimental: Animals: Studies were carried out on 12 conditioned mongrel dogs (9 males and 3 females) weighing 22-32 kg (avg=25.3 kg). Animal care was in accordance with the recommendations of the American Association for Accreditation of Laboratory Animal Care, and met all standards prescribed by the Guide for the Care and Use of Laboratory Animals (Guide for the Care and Use of Laboratory Animals (1978) Dept. of Health, Education and Welfare, Washington, D.C. (Publ. No. 78-23). Animal protocols were approved by The University of Texas Animal Welfare committee. The dogs were fasted overnight prior to the day of experimentation. They were anesthetized with sodium pentobarbital (25 mg/kg i.v.). Dogs were then endotracheally intubated and ventilated with a piston-driven respirator (Harvard instruments) using room air at a tidal volume of 15 ml/kg and at a rate of 12 to 14 breaths per minute, adjusted to achieve a normal arterial pH and pCO2 (Instrumentation Laboratories lL1302 pH/Blood Gas Analyzer). Catheters were placed percutaneously into the femoral and pulmonary arteries; In the latter, a flow-directed thermal-dilation catheter was used (Abbott Critical Care Systems).
Physiologic measurements: Mean SAP and heart rate were continuously monitored (Parametron 7048 Monitoring System, Roche) and stored on a magnetic disk using an analog-to-digital converter (Scientific Solutions, Inc.). Cardiac output (CO) was determined as the mean of six measurements by thermal-dilution. Systemic vascular resistance was calculated as (SAP X80)/CO and expressed as dynes-sec/cm^5 (kg/s·cm^4).
Protocol: After the blood pressure and heart rate stabilized, endotoxin (40 µg/kg, in 10 ml of phosphate-buffered saline (PBS), pH 7.4) was infused i.v. over 2 minutes. This dose of endotoxin typically induces severe and often lethal cardiovascular collapse in the dog. Blood pressure was monitored, and when either SAP fell below 60 mm Hg or a stable nadir in systemic arterial pressure (SAP) was maintained for 10 minutes, L-NMA was administered (20 mg/kg in 5 ml of PBS i.v. over 1 min.). In most experiments, L-arginine (400 mg/kg in 20 ml PBS) was administered ten minutes later by i.v. infusion over 2 minutes. In control experiments, dogs without prior exposure to endotoxin received L-NMA alone. To simulate the hypotension observed in dogs receiving endotoxin, one group of dogs received a continuous i.v. infusion of nitroglycerin (2 mg/ml) at a rate adjusted to maintain the SAP at 60-70 mm Hg. Nitroglycerin-treated dogs then received L-NMA (20 mg/kg) and 20 minutes later L-arginine was administered ([…]).
Statistics: Statistical significance was evaluated using Student's test and either a one-tailed or two-tailed analysis as appropriate for comparisons.

[4] = test system: hypotension associated with the administration of TNF in the dog; test: TNF-induced hypotension in the dog; format: in vivo, dogs
Experimental: Recombinant human TNF, specific activity 2 x 10^7 units/mg, was from the Dainippon Chemical Corporation, Tokyo, Japan. TNF was administered at a dose of 10 µg//kg in a volume of 10 ml of phosphate buffered saline containing 17 mg/ml of dog albumin. […] Arginine was obtained from Sigma Chemical Company, St. Louis, Mo.
Four conditioned mongrel dogs, 2 males and 2 females, weighing 28 to 30 kg, were studied. Care of the animals were in accordance with the recommendations of the American Association for Accreditation of Laboratory Animals [DHEW(DHHS) publication no. (NIH) 78-23, revised, 1978]. On the day of the experiment, the dogs were fasted overnight. They were anesthetized with phenobarbital (25 mg/kg). The animals were then intubated orally with a #10 fr. endotracheal tube and ventilated with a Harvard pump ventilator at a rate of 14 breaths per minute and a tidal volume of 15 ml/kg. An arterial line was percutaneously placed in the femoral artery on the day of the experiment.
Mean (electronic) and phasic systemic arterial pressures (SAP) were continuously recorded on a Hewlett-Packard recording system (model 7758B) using strain gauge manometers (Hewlett-Packard model 1290A) which were connected to the arterial line. Heart rate (HR) was determined from an EKG tracing and continuously recorded on the Hewlett-Packard recording system. Oxyhemoglobin saturation (SaO2) was obtained using a pulse oximeter (BIOX 111, Boulder, CO). Continuous time-series records of SAP, HR, and SaO2 were obtained using a Lab Master analog-to-digital convertor (16 channel, 12 bit, 30 kHz; Scientific Solutions, Inc.) sampling at 55 Hz and storing the 6 sec averages on a magnetic disk.

pithed rats = test: Blood pressure response to phenylephrine in pithed rats without/with arginase; format: in vivo; conditions: for Blood Pressure Increase With Arginase Ave. ± S.D.: after arginase; for difference in pressor response between control and endotoxic animals: phenylephrine 6 µg/Kg
Experimental: Animals were pithed as described in Example 1. Blood pressure measurements were obtained also as described in Example 1. Arginase was also prepared according to the method described in Example 1.
Both left and right jugular veins were cannulated for drug administration; and left jugular was used for bolus administration of phenylephrine and the right jugular vein was used for continuous infusion of arginase. All animals from both groups (Control and Endotoxin) received phenylephrine in sequential doses of 0.3, 1.0, 2.0, or 6.0 ug/Kg.
Endotoxin (15 mg/kg body weight) was given by intravenous injection 6 hrs before the experiment began; arginase (300 I.U./Min. for 20 min.) was given intravenously to each rat after the "Without Arginase" measurements were made.
For the second, third and fourth rats, the blood pressure increments were 14, 32 and 9 before arginase, respectively, and 9, 20 and 10 after arginase, respectively.

[5] = Study 2: Nitroglycerin-treated dogs (n=3), means ± S.E., baseline 3.14 ± 0.21
[6] = Study 2: Nitroglycerin-treated dogs (n=3), means ± S.E., baseline 143.7 ± 12.1
[7] = Study 2: Nitroglycerin-treated dogs (n=3), means ± S.E., baseline 3294 ± 74
[8] = Study 2: Nitroglycerin-treated dogs (n=3), means ± S.E., continuous nitroglycerin (2 mg/ml) titrated to SAP 65 mm Hg, then L-NMA 20 mg/kg, then L-arginine, baseline 129.3 ± 10.2
[9] = Study 2: Nitroglycerin-treated dogs (n=3), value in brackets
[10] = Study #1: Control Animals, phenylephrine 0.3 µg/Kg
[11] = Study #1: Control Animals, phenylephrine 1.0 µg/Kg
[12] = Study #1: Control Animals, phenylephrine 2.0 µg/Kg
[13] = Study #1: Control Animals, phenylephrine 6.0 µg/Kg
[14] = Study #2: Endotoxic Animals, phenylephrine 0.3 µg/Kg
[15] = Study #2: Endotoxic Animals, phenylephrine 1.0 µg/Kg
[16] = Study #2: Endotoxic Animals, phenylephrine 2.0 µg/Kg
[17] = Study #2: Endotoxic Animals, phenylephrine 6.0 µg/Kg

SMILES: CNC(=N)NCCC[C@H](N)C(=O)O [NMMA, N^ω-methyl-L-arginine]
- % Target Cell Lysis ([1]; [NMMA] 2.0 mM, same effector cells, without NMMA 66.1 ± 9.5): 75.1 ± 4.1%
- effect on the proliferation phase or the lytic phase of human LAK cells exposed to IL-2 ([1]; in vitro): did not alter
- TNF Activity ([2]; [NMMA] 0.125 mM): 536.9 Units/ml
- TNF Activity ([2]; [NMMA] 0.250 mM): 538.2 Units/ml
- TNF Activity ([2]; [NMMA] 0.500 mM): 562.4 Units/ml
- TNF Activity ([2]; [NMMA] 1.0 mM): 415.7 Units/ml
- effect on the cytolytic effect of TNF towards tumor cells in vitro ([2]; murine L929 cells): did not alter
- time SAP maintained greater than 100 mm Hg by second dose of L-NMA ([3]; Figure 6 dog, endotoxin): 2 h
- time blood pressure was maintained by the first dose of L-NMA ([3]; Figure 6 dog, endotoxin): 48 min
- increase in SAP ([3]; Figure 6 dog, endotoxin hypotension 47 mm Hg, L-NMA 20 mg/kg, within 10 min): 73 mm Hg
- Cardiac Output ([3]; Study 1: Endotoxin-treated dogs (n=4), means ± S.E., same sequence, baseline 2.99 ± 0.32): 2.03 ± 0.32 L/min
- Heart Rate ([3]; Study 1: Endotoxin-treated dogs (n=4), means ± S.E., same sequence, baseline 119.5 ± 6.0): 123.3 ± 4.8 beats/min
- Systemic Vascular Resistance ([3]; Study 1: Endotoxin-treated dogs (n=4), means ± S.E., same sequence, baseline 3565 ± 454): 4462 ± 552 dynes-sec/cm^5
- Systemic Arterial Pressure ([3]; Study 1: Endotoxin-treated dogs (n=4), means ± S.E., sequence endotoxin 40 µg/kg, L-NMA 20 mg/kg, 10 min later L-arginine 400 mg/kg (measured 2 min later), baseline 128.3 ± 9.4): 107.3 ± 9.6 mmHg
- Systemic Vascular Resistance ([3]; Study 1: Endotoxin-treated dogs (n=4), means ± S.E., value in brackets): 4.462 ± 0.552 Kg/s·cm^4
- Cardiac Output [3, 5]: 3.85 ± 0.80 L/min
- Heart Rate [3, 6]: 191.7 ± 35.0 beats/min
- Systemic Vascular Resistance [3, 7]: 1858 ± 399 dynes-sec/cm^5
- Systemic Arterial Pressure [3, 8]: 81.8 ± 3.5 mmHg
- Systemic Vascular Resistance [3, 9]: 1.858 ± 0.399 Kg/s·cm^4
- increase in SAP ([3]; control dogs not treated with endotoxin, L-NMA alone): 24.8 ± 2.7 mm Hg
- Systemic Arterial Pressure ([3]; control dogs without endotoxin (n=4), means±S.E., L-NMA, baseline 129.0±10.9): 153.8±11.4 mm Hg
- Cardiac Output ([3]; control dogs without endotoxin (n=4), means±S.E., baseline 3.54±0.68): 2.12 ± 0.26 L/min
- Heart Rate ([3]; control dogs without endotoxin (n=4), means±S.E., baseline 121±17.9): 82.5±6.1 beats/min
- Systemic Vascular Resistance ([3]; control dogs without endotoxin (n=4), means±S.E., baseline 3115±347): 5967±523 dynes-sec/cm^5
- Systemic Vascular Resistance ([3]; control dogs without endotoxin (n=4), value in brackets): 5.967±0.523 Kg/cm^4·s
- change in blood pressure ([3]; dogs with blood pressure reduced to 65 mm Hg by continuous i.v. nitroglycerin, L-NMA 20mg/kg): 17.1±5.0 mm Hg
- duration normal blood pressure maintained ([3]; endotoxin-treated dog, additional dose of L-NMA (20 mg/kg) when blood pressure began to decrease): at least 2 hours
- duration normal blood pressure restored ([3]; endotoxin-treated dog, single i.v. dose of L-NMA (20 mg/kg)): 30 to 60 min
- HR and CO ([3]; endotoxin-treated dogs, L-NMA 20 mg/kg): unchanged
- time to reversal of hypotension by L-NMA ([3]; endotoxin-treated dogs, L-NMA 20 mg/kg iv): ≤ 1.5 min
- increase in SAP ([3]; endotoxin-treated dogs, L-NMA 20 mg/kg, p<0.01): 47.8 ± 6.8 mm Hg
- decrease in cardiac output (Δ) ([3]; two of the four control dogs, L-NMA): ≥ 1.5 L/min
- duration of NMMA-induced bradycardia ([4]; NMMA alone to untreated dogs (n=3)): 31 min
- blood pressure increase ([4]; NMMA alone to untreated dogs (n=3), within 2 minutes after infusion): 12 mm Hg
- blood pressure increase ([4]; NMMA in dogs infused with nitroglycerin 28 µg/kg/minute IV): 14 mm
- increase in blood pressure after administration of NMMA ([4]; dog with severe TNF hypotension, 4.4 mg NMMA/kg, Figure 4a): 80 mm Hg
- time to pressor effect of NMMA ([4]; dogs made hypotensive with TNF): ≤ 2 min

SMILES: O=[N+]([O-])OCC(CO[N+](=O)[O-])O[N+](=O)[O-] [Nitroglycerin]
- Cardiac Output [3, 5]: 2.72 ± 0.27 L/min
- Heart Rate [3, 6]: 137.3 ± 5.0 beats/min
- Systemic Vascular Resistance [3, 7]: 1924 ± 132 dynes-sec/cm^5
- Systemic Arterial Pressure [3, 8]: 64.7 ± 2.7 mmHg
- Systemic Vascular Resistance [3, 9]: 1.924 ± 0.132 Kg/s·cm^4

SMILES: CNC[C@H](O)c1cccc(O)c1 [Phenylephrine, phenylephrine]
- Blood Pressure Increase Without Arginase Ave. ± S.D. (pithed rats; [10]): 17.8 ± 5.0 mm Hg
- Blood Pressure Increase With Arginase Ave. ± S.D. (pithed rats; [10]): 13.3 ± 2.5 mm Hg
- Blood Pressure Increase Without Arginase Ave. ± S.D. (pithed rats; [11]): 31.3 ± 4.0 mm Hg
- Blood Pressure Increase With Arginase Ave. ± S.D. (pithed rats; [11]): 22.5 ± 6.1 mm Hg
- Blood Pressure Increase Without Arginase Ave. ± S.D. (pithed rats; [12]): 51.0 ± 6.6 mm Hg
- Blood Pressure Increase With Arginase Ave. ± S.D. (pithed rats; [12]): 38.8 ± 9.1 mm Hg
- Blood Pressure Increase Without Arginase Ave. ± S.D. (pithed rats; [13]): 93.0 ± 10.3 mm Hg
- Blood Pressure Increase With Arginase Ave. ± S.D. (pithed rats; [13]): 79.8 ± 13.4 mm Hg
- Blood Pressure Increase Without Arginase Ave. ± S.D. (pithed rats; [14]): 2.2 ± 0.7 mm Hg
- Blood Pressure Increase With Arginase Ave. ± S.D. (pithed rats; [14]): 2.0 ± 0.6 mm Hg
- Blood Pressure Increase Without Arginase Ave. ± S.D. (pithed rats; [15]): 7.0 ± 1.1 mm Hg
- Blood Pressure Increase With Arginase Ave. ± S.D. (pithed rats; [15]): 9.0 ± 1.8 mm Hg
- Blood Pressure Increase Without Arginase Ave. ± S.D. (pithed rats; [16]): 13.6 ± 2.6 mm Hg
- Blood Pressure Increase With Arginase Ave. ± S.D. (pithed rats; [16]): 23.3 ± 5.3 mm Hg
- Blood Pressure Increase Without Arginase Ave. ± S.D. (pithed rats; [17]): 33.7 ± 9.6 mm Hg
- Blood Pressure Increase With Arginase Ave. ± S.D. (pithed rats; [17]): 48.5 ± 7.6 mm Hg
- difference in pressor response between control and endotoxic animals (pithed rats; animals given arginase): 31.3 mm Hg
- difference in pressor response between control and endotoxic animals (pithed rats; animals not given arginase): 59.3 mm Hg
